Measured values taken from patent US20120148857A1, “Treated wood and methods of treatment” (priority 2010, published 2012).
Where two headings read alike, the source gives them in different places.

Legend:
[1] = pH test of impregnating solution with Hydrion test paper; details: 0.2 molar solution
Text: It was then allowed to float in a 0.2 molar sodium metaborate solution, absorbing it by capillary wicking. After six hours the upper surface was damp.

[2] = from the CRC listed solubility
Text: Following is a listing of candidate zinc salts with the properties found in the CRC handbook, 65th edition, and their stated solubilities at various temperatures, and molecular weights. The Name in each case is followed by CRC listed solubilities at stated temperatures, Molecular weight, and Molarity of saturated solution.

[3] = Text: Knowing the molecular weight of the product, it was possible to calculate how many moles of water were hydrated. It was thus possible to calculate the molar content of a saturated solution of the particular zinc salt, and thus to determine if is was sufficiently soluble at a low but possible processing temperature for an unheated preservative-treatment facility. […] Ten grams of the clear solution was dried overnight in a 70 C oven. […] Water has a molecular weight of 18.
The anhydrous foamed salt was crushed and added back to the solution, as crystallization seeding.
The washed precipitates were dried to constant weight in a 70 C oven.

[4] = pH measurement of aqueous solutions with ion-sensitive FET pH meter; type: physicochemical; details: water
Text: Time was allowed for the pH reading to equilibrate after each addition. This typically took ten to thirty seconds, and increased noticeably with further additions. An Ion-Sensitive FET pH meter was used. The meter was calibrated before and after each measurement series with pH 7.0 buffer solution, and the readings corrected for any meter drift observed. The pH measurements were graphed.
Five milliliters of a solution of pH 4.1 contains about 10^−4 moles H^+ per liter times 5/1000=5×10^−7 moles H^+. Fifteen mL of a solution of pH 7.5 contains 15/1000×10^−75 moles of H^+, or about 10^−9.3 moles H^+. Twenty milliliters of a solution of pH 6.9 contains 20/1000×10^−6.9 moles of H+, or about 10^−8.7 moles of H+.

O=B[O-].[Na+] [sodium metaborate]
pH of solution by Hydrion test paper [1]: 10-11 pH

Zinc Valerate dihydrate
Molarity of saturated solution [2]: mol/L 0.085

O=C([O-])c1ccccc1.O=C([O-])c1ccccc1.[Zn+2] [Zinc benzoate]
Molarity of saturated solution [3]: mol/L 0.0117

Zinc sorbate
Solubility in words [3]: so little solubility even in hot water

O=C([O-])CC(O)C(=O)[O-].[Zn+2] (stereo not drawn) [Zinc malate]
Molarity of saturated solution [3]: mol/L 0.071 | Molarity of the saturated solution [3]: 0.133 M | Solubility (laboratory measurement) [3]: Zinc malate 1.4 g/100 ml@16 C.

O.O.O.O.O.O.O.O.O=S(=O)([O-])c1ccc(O)cc1.O=S(=O)([O-])c1ccc(O)cc1.[Zn+2] [Zinc phenol-sulfonate octahydrate]
Molarity of saturated solution [2]: mol/L 1.12

(ZnO) (B2O3)2
pH of a saturated solution [4]: 6.7

zinc borate [zinc borate furnished by City Chemical, reference compound]
pH of a saturated solution [4]: 6.7

Zinc mandelate
Molarity of saturated solution ([3]; from the laboratory solubility (10-16 C)): mol/L 0.010 | Solubility (laboratory measurement) ([3]; water, 14 C): Zinc mandelate 0.38 g/100 ml@14 C.
